Assay results published in US12600726B2, “Antagonists of the muscarinic acetylcholine receptor M4” (Vanderbilt University, priority 2017, dated 2026).

Experiments:
Rat M4 = biological target: T1, Rat M4 (Rattus norvegicus, UniProt P08485); experiment: mAChR M4 cell-based functional calcium flux assay (rat M4/Gqi5/CHO cells); conditions: for Emin (rat M4): % ACh maximum at 30 μM
T1 construct: expressed in transfected cells; host or cells: CHO-K1 (ATCC), stably expressing M4 and Gqi5
T1 sequence (P08485 1-478): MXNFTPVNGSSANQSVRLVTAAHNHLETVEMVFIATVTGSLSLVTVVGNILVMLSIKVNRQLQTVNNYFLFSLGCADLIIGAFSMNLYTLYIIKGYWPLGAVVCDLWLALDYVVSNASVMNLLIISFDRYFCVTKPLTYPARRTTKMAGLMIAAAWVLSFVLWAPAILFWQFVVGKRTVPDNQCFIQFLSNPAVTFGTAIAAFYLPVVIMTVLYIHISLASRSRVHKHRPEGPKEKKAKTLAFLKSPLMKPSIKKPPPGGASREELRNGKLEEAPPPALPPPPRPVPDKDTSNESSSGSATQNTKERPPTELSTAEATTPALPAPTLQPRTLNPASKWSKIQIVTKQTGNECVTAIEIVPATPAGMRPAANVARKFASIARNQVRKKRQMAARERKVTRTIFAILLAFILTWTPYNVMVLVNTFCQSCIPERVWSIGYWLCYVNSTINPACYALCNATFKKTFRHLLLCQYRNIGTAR
Experimental: (§1) Human, rat, or mouse M4. cDNA, along with the chimeric G protein Gqi5, were transfected into Chinese hamster ovary (CHO-K1) cells purchased from the American Type Culture Collection using Lipofectamine2000. M4/Gqi5/CHO cells were grown in Ham's F-12 medium containing 10% heat-inactivated fetal bovine serum (FBS), 20 mM HEPES, 500 μg/mL G418 sulfate, and 200 μg/mL Hygromycin B.
(§2) For high throughput measurement of agonist-evoked increases in intracellular calcium, CHO-K1 cells stably expressing muscarinic receptors were plated in growth medium lacking G418 and hygromycin at 15,000 cells/20 μL/well in Greiner 384-well black-walled, tissue culture (TC)-treated, clear-bottom plates (VWR). Cells were incubated overnight at 37° C. and 5% CO2. The next day, cells were washed using an ELX 405 (BioTek) with assay buffer; the final volume was then aspirated to 20 μL. Next, 20 μL of a 2.3 μM stock of Fluo-4/acetoxymethyl ester (Invitrogen, Carlsbad, CA), prepared as a 2.3 mM stock in DMSO and mixed in a 1:1 ratio with 10% (w/v) Pluronic F-127 and diluted in assay buffer, was added to the wells and the cell plates were incubated for 50 min at 37° C. and 5% CO2. Dye was removed by washing with the ELX 405 and the final volume was aspirated to 20 μL. Compound master plates were formatted in a 10 point concentration-response curve (CRC) format (1:3 dilutions) in 100% DMSO with a starting concentration of 10 or 1 mM using a BRAVO liquid handler (Agilent). Test compound CRCs were then transferred to daughter plates (240 nL) using the Echo acoustic plate reformatter (Labcyte, Sunnyvale, CA) and then diluted into assay buffer (40 μL) to a 2× stock using a Thermo Fisher Combi (Thermo Fisher Scientific, Waltham, MA).
(§3) Calcium flux was measured using the Functional Drug Screening System (FDSS) 6000 or 7000 (Hamamatsu Corporation, Tokyo, Japan) as an increase in the fluorescent static ratio. Compounds were applied to cells (20 μL, 2×) using the automated system of the FDSS at 2 seconds into the protocol and the data were collected at 1 Hz. At 143 s, 10 μL of an EC20 concentration of the muscarinic receptor agonist acetylcholine was added (5×), followed by the addition of 12 μL of an EC80 concentration of acetylcholine at the 268 s time point (5×). Agonist activity was analyzed as a concentration-dependent increase in calcium mobilization upon compound addition. Positive allosteric modulator activity was analyzed as a concentration-dependent increase in the EC20 acetylcholine response. Antagonist activity was analyzed as a concentration-dependent decrease in the EC80 acetylcholine response; for the purposes of the tables herein, an IC50 (inhibitory concentration 50) was calculated as a concentration-dependent decrease of the response elicited by an EC80 concentration of acetylcholine. Concentration-response curves were generated using a four-parameter logistical equation in XLFit curve fitting software (IDBS, Bridgewater, NJ) for Excel (Microsoft, Redmond, WA) or Prism (GraphPad Software, Inc., San Diego, CA) or the Dotmatics software platform (Dotmatics, Bishop's Stortford, UK).
(§4) Compounds were synthesized as described above. Activity (IC50 and Emin) was determined in the mAChR M4 cell-based functional assay as described above and the data are shown in Table 2 and Table 3. The compound number corresponds to the compound numbers used in the examples and Tables 1 and 1.1.

Human M4 = biological target: T2, Human M4 (Homo sapiens, UniProt P08173); experiment: mAChR M4 cell-based functional calcium flux assay (human M4/Gqi5/CHO cells); conditions: for Emin (human M4): % ACh maximum at 30 μM; for IC50: decrease of the response to an EC80 concentration of acetylcholine
T2 construct: expressed in transfected cells; host or cells: CHO-K1 (ATCC), stably expressing M4 and Gqi5
T2 sequence (P08173 1-479): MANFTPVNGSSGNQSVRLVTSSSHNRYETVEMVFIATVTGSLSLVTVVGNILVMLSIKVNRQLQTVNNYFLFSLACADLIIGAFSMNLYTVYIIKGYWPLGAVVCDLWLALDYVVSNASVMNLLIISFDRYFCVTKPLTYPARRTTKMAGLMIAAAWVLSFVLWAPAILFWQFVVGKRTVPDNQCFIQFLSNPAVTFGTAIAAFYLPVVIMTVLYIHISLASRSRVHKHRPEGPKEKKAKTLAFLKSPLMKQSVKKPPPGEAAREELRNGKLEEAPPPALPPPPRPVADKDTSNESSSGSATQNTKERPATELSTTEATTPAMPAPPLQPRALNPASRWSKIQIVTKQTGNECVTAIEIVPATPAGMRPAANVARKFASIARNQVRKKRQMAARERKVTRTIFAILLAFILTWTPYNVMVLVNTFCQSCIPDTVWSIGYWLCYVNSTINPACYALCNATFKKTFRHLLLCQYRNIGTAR
Experimental: as §1, §2, §3, §4

[1] = decrease of the response to an EC80 concentration of acetylcholine

Compound | Emin (rat M4) (Rat M4) [%] | IC50 (Rat M4; [1]) [µM] | Emin (human M4) (Human M4) [%] | IC50 (Human M4) [nM] | IC50 (Rat M4; cells printed in μM, decrease of the EC80 acetylcholine response) [µM]
Fc1ccc(Cl)c(-c2ccc(NCC3CC34CCN(CC35CC6CC(CC(C6)C3)C5)CC4)nn2)c1 (centres unmarked) [Compound 16, N-[[6-(1-adamantylmethyl)-6-azaspiro[2.5]octan-2-yl]methyl]-6-(2-chloro-5-fluoro-phenyl)pyridazin-3-amine] | 3.13 | 0.496 | 2.44 | 94.1 | –
Fc1ccc(Cl)c(-c2ccc(NCC3CC34CCN(CC(c3ccccc3)c3ccccc3)CC4)nn2)c1 (centres unmarked) [Compound 17, 6-(2-chloro-5-fluoro-phenyl)-N-[[6-(2,2-diphenylethyl)-6-azaspiro[2.5]octan-2-yl]methyl]pyridazin-3-amine] | 12.1 | 2.98 | 3.82 | 987 | –
O=C(Nc1ccc(-c2cc(F)ccc2Cl)nn1)C1CC12CCN(CC1CC3C=CC1C3)CC2 (centres unmarked) [Compound 18, 6-(5-bicyclo[2.2.1]hept-2-enylmethyl)-N-[6-(2-chloro-5-fluoro-phenyl)pyridazin-3-yl]-6-azaspiro[2.5]octane-2-carboxamide] | 4.72 | 3.09 | 3.46 | 870 | –
CC(CN1CCC2(CC1)CC2C(=O)Nc1ccc(-c2cc(F)ccc2Cl)nn1)C(C)(C)C (centres unmarked) [Compound 19, N-[6-(2-chloro-5-fluoro-phenyl)pyridazin-3-yl]-6-(2,3,3-trimethylbutyl)-6-azaspiro[2.5]octane-2-carboxamide] | 34.9 | – | 6.57 | 5060 | > 10
CC(C)(C)CCN1CCC2(CC1)CC2CNc1ccc(Cl)nn1 (centres unmarked) [Compound 20, 6-chloro-N-[[6-(3,3-dimethylbutyl)-6-azaspiro[2.5]octan-2-yl]methyl]pyridazin-3-amine] | 5.14 | 1.09 | 3.47 | 270 | –
Cc1nn(C)cc1-c1cnc(NCC2CC23CCN(CC(C)C(C)(C)C)CC3)cn1 (centres unmarked) [Compound 22, 5-(1,3-dimethylpyrazol-4-yl)-N-[[6-(2,3,3-trimethylbutyl)-6-azaspiro[2.5]octan-2-yl]methyl]pyrazin-2-amine] | 4.67 | 0.404 | 3.25 | 169 | –
Cc1nn(C)cc1-c1cnc(NCC2CC23CCN(CCC(C)(C)C)CC3)cn1 (centres unmarked) [Compound 23, N-[[6-(3,3-dimethylbutyl)-6-azaspiro[2.5]octan-2-yl]methyl]-5-(1,3-dimethylpyrazol-4-yl)pyrazin-2-amine] | 4.71 | 0.278 | 2.71 | 64.7 | –
CC(C)(C)CCN1CCC2(CC1)CC2CNc1ccc(-c2ccc(F)cc2F)nn1 (centres unmarked) [Compound 28, 6-(2,4-difluorophenyl)-N-[[6-(3,3-dimethylbutyl)-6-azaspiro[2.5]octan-2-yl]methyl]pyridazin-3-amine] | 2.59 | 0.261 | 2.74 | 55.7 | –

Now those with a lower IC50 (Human M4), led by results:

Emin (rat M4) (Rat M4) [%] | IC50 (Rat M4; [1]) [µM] | Emin (human M4) (Human M4) [%] | IC50 (Human M4) [nM] | IC50 (Rat M4; cells printed in μM, decrease of the EC80 acetylcholine response) [µM] | Compound
3.19 | 0.159 | 2.81 | 42.8 | – | CC(C)(C)CCN1CCC2(CC1)CC2CNc1ccc(-c2ccc(F)cc2Cl)nn1 (centres unmarked) [Compound 24, 6-(2-chloro-4-fluoro-phenyl)-N-[[6-(3,3-dimethylbutyl)-6-azaspiro[2.5]octan-2-yl]methyl]pyridazin-3-amine]
4.56 | 0.191 | 3.65 | 30.1 | – | Cc1nn(C)cc1-c1cnc(NCC2CC23CCN(CC2CC4C=CC2C4)CC3)cn1 (centres unmarked) [Compound 21, N-[[6-(5-bicyclo[2.2.1]hept-2-enylmethyl)-6-azaspiro[2.5]octan-2-yl]methyl]-5-(1,3-dimethylpyrazol-4-yl)pyrazin-2-amine]
3.07 | 0.153 | 3.18 | 21.3 | – | CC(C)(C)CCN1CCC2(CC1)CC2CNc1ccc(-c2cccc(F)c2)nn1 (centres unmarked) [Compound 27, N-[[6-(3,3-dimethylbutyl)-6-azaspiro[2.5]octan-2-yl]methyl]-6-(3-fluorophenyl)pyridazin-3-amine]
2.42 | 0.228 | 1.95 | 17.7 | – | Fc1ccc(Cl)c(-c2ccc(NCC3CC34CCN(CC3CCCCC3)CC4)nn2)c1 (centres unmarked) [Compound 14, 6-(2-chloro-5-fluoro-phenyl)-N-[[6-(cyclohexylmethyl)-6-azaspiro[2.5]octan-2-yl]methyl]pyridazin-3-amine]
3.14 | 0.0398 | 2.78 | 17.2 | – | Cc1ccc(F)cc1-c1ccc(NCC2CC23CCN(CCC(C)(C)C)CC3)nn1 (centres unmarked) [Compound 29, N-[[6-(3,3-dimethylbutyl)-6-azaspiro[2.5]octan-2-yl]methyl]-6-(5-fluoro-2-methyl-phenyl)pyridazin-3-amine]
2.82 | 0.117 | 2.29 | 15.6 | – | CC(C)(C)CCN1CCC2(CC1)CC2CNc1ccc(-c2cc(F)ccc2Cl)nn1 (centres unmarked) [Compound 13, 6-(2-chloro-5-fluoro-phenyl)-N-[[6-(3,3-dimethylbutyl)-6-azaspiro[2.5]octan-2-yl]methyl]pyridazin-3-amine]
3.40 | 0.192 | 2.98 | 13.3 | – | CC(C)(C)CCN1CCC2(CC1)CC2CNc1ccc(-c2ccccc2F)nn1 (centres unmarked) [Compound 26, N-[[6-(3,3-dimethylbutyl)-6-azaspiro[2.5]octan-2-yl]methyl]-6-(2-fluorophenyl)pyridazin-3-amine]
4.24 | 0.519 | 3.08 | 6.51 | – | Fc1ccc(Cl)c(-c2ccc(NCC3CC34CCN(CC3CCCOC3)CC4)nn2)c1 (centres unmarked) [Compound 15, 6-(2-chloro-5-fluoro-phenyl)-N-[[6-(tetrahydropyran-3-ylmethyl)-6-azaspiro[2.5]octan-2-yl]methyl]pyridazin-3-amine]
3.75 | 0.0778 | 2.93 | 4.35 | – | Cc1ccncc1-c1ccc(NCC2CC23CCN(CCC(C)(C)C)CC3)nn1 (centres unmarked) [Compound 25, N-[[6-(3,3-dimethylbutyl)-6-azaspiro[2.5]octan-2-yl]methyl]-6-(4-methyl-3-pyridyl)pyridazin-3-amine]
